From PubChem BioAssay AID1259411 (Chemical Carcinogenesis Research Information System (CCRIS), 2018)
Calls of active or inactive are those of the source. The rule behind the calls is not given here.

System: rodent carcinogenicity bioassays, tumor incidence
Experiment: CCRIS carcinogenicity studies
Conditions: Route: ORAL, Dose: 0, Dose: 0
Method in brief: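 Archive of carcinogenicity, mutagenicity, tumor promotion and tumor inhibition results drawn from journals, NCI reports and other sources, expert-reviewed; covers 1985-2011 and is no longer updated.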

Measured: carcinogen call

Cc1cccc(C)c1NC(=O)CN1CCCC1=O
inactive: Species: MOUSE, Strain/Sex: B6C3F1/FEMALE, 30, 90, 270 MG/KG/D IN DIET FOR 104 WK (STUDY DURATION: 104 WK), 30, 90, 270 MG/KG/D IN DIET FOR 104 WK (STUDY DURATION: 104 WK) inactive; negative | Species: MOUSE, Strain/Sex: B6C3F1/MALE, 30, 90, 270 MG/KG/D IN DIET FOR 104 WK (STUDY DURATION: 104 WK), 30, 90, 270 MG/KG/D IN DIET FOR 104 WK (STUDY DURATION: 104 WK) inactive; negative | Species: RAT, Strain/Sex: F344/FEMALE, 200, 600, 1800 PPM IN DIET FOR 104 WK (STUDY DURATION: 104 WK), 200, 600, 1800 PPM IN DIET FOR 104 WK (STUDY DURATION: 104 WK) inactive; negative | Species: RAT, Strain/Sex: F344/MALE, 200, 600, 1800 PPM IN DIET FOR 104 WK (STUDY DURATION: 104 WK), 200, 600, 1800 PPM IN DIET FOR 104 WK (STUDY DURATION: 104 WK) inactive; negative

Nc1ccc([N+](=O)[O-])cc1N
inactive: Species: MOUSE, Strain/Sex: B6C3F1/FEMALE, 3750, 7500 PPM IN DIET, 3750, 7500 PPM IN DIET inactive; negative | Species: MOUSE, Strain/Sex: B6C3F1/MALE, 3750, 7500 PPM IN DIET, 3750, 7500 PPM IN DIET inactive; negative | Species: RAT, Strain/Sex: F344/FEMALE, 375, 750 PPM IN DIET, 375, 750 PPM IN DIET inactive; negative | Species: RAT, Strain/Sex: F344/MALE, 375, 750 PPM IN DIET, 375, 750 PPM IN DIET inactive; negative
